Assay results from patent US20110151025A1, “Compositions Comprising N-Halogenated or N,N-Dihalogenated Amine for Treatment and Prophylaxis of Bronchopulmonary Infections” (NOVABAY PHARMACEUTICALS, INC., priority 2008, published 2011).
Entries after “also recorded” stand apart in the source; their conditions may differ. Where two headings read alike, the source gives them in different places.

Columns and labels:
viral bronchitis = assay: Inhalation of 1% NCT by human volunteers suffering from viral bronchitis; type: in vivo
[1] = Intraperitoneal injection in Swiss mice; type: in vivo; details: 1% NCT
From the text: NCT is relatively safe and well-tolerated by mammals. For example, as a mild oxidant, tolerability of 1% aqueous NCT solution by human and animal tissue is good.

[2] = 1% aqueous NCT solution, rabbit eyes; cited from earlier work
[3] = 1% aqueous NCT solution, human eyes; cited from earlier work
[4] = tested on: infectious conjunctivitis; details: in vivo; cited from earlier work
external otitis = details: human external otitis; cited from earlier work
[5] = chronic rhinosinusitis, pilot study; cited from earlier work
[6] = purulent coated crural ulcers; cited from earlier work
[7] = tested on: omniresistant Pseudomonas aeruginosa; details: NCT irrigations, three patients; cited from earlier work
[8] = transtympanal injection of 0.1%, 1%, and 10% NCT, mice; cited from earlier work
Staphylococcus aureus = details: local administration, mouse model; cited from earlier work
all classes of pathogens = details: cited from earlier work
[9] = tested on: proinflammatory cytokines; details: cited from earlier work
[10] = Tolerability of inhaled haloamines in anesthetized pig model; details: for Arterial partial pressure of oxygen (PaO2) compared to controls: 4 inhalations of 5 mL, hourly over 4 hours; for Heart rate compared to controls: 4 hours measurement
Procedure: A study was designed to evaluate the tolerability of inhalative haloamines in a pig model. NCT was used as a representative haloamine. Anesthetized pigs inhaled test solutions of 1% NCT (n=7), 5% NCT (n=6), or 1% NCT plus 1% ammonium chloride (n=6), and 0.9% saline solution as a control (n=7), respectively. Applications were performed every hour over a four-hour time period, i.e., four inhalations in total, with 5 mL each.
Anesthetized pigs inhaled test solutions of 1% NCT (n=7), 5% NCT (n=6), or 1% NCT plus 1% ammonium chloride (n=6), and 0.9% saline solution as a control (n=7), respectively. Applications were performed every hour over a four-hour period, i.e., 4 inhalations in total, with 5 mL each.
Anesthetized pigs inhaled test solutions of 1% NCT (n=7), 5% NCT (n=6), or 1% NCT plus 1% ammonium chloride (n=6), and 0.9% saline solution as a control (n=7), respectively. Applications were performed every hour within four hours, i.e., 4 inhalations in total, with 5 mL each.
Anesthetized pigs inhaled test solutions of 1% NCT (n=7), 5% NCT (n=6), or 1% NCT plus 1% ammonium chloride (n=6), and 0.9% saline solution as a control (n=7), respectively. Applications were performed every hour over a four-hour period of time, i.e., 4 inhalations in total, with 5 mL each.

Q: Which “Symptoms experienced by patients” value (viral bronchitis; 5 mL of 1% NCT inhaled for 10 minutes 3 times daily for three days) does the source give for `O=S(=O)(O)CCNCl` [NCT, N-chlorotaurine] here?
A: easier breathing, less coughing and less expectoration

Q: And the “Side effects (symptoms for bronchoconstriction, cough, dyspnea)” value (viral bronchitis; 5 mL of 1% NCT inhaled for 10 minutes 3 times daily for three days, three volunteers)?
A: no side effects detectable

Q: What about the “Development of bronchitis after pharyngitis” value (viral bronchitis; one patient, NCT used as a treatment for pharyngitis) of the same compound?
A: did not develop bronchitis

Q: And the Tolerated intraperitoneal dose [1]?
A: tolerated up to one mL 1% NCT

Q: What about the Tolerability [2] of the same compound?
A: good

Q: And the Tolerability [3]?
A: good

Q: And the “Efficacy in infectious conjunctivitis” value [4]?
A: data indicating efficacy

Q: And the “Efficacy versus standard medication” value (external otitis)?
A: more effective than a standard medication

Q: And the Tolerability [5]?
A: good tolerability

Q: And the “Pain versus chloramine T” value [6]?
A: significantly less pain

Q: What about the “Toxicity versus chloramine T” value [6] of the same compound?
A: less toxic than chloramine T

Q: And the “Eradication of bacteria from the urinary bladder” value [7]?
A: possible to eradicate bacteria

Q: What about the “Damage of the inner ear” value [8] of the same compound?
A: did not cause damage of the inner ear

Q: And the “Inhibition of septic arthritis” value (Staphylococcus aureus)?
A: inhibited septic arthritis

Q: What about the Antimicrobial spectrum (all classes of pathogens) of the same compound?
A: broad-spectrum antimicrobial activity

Q: What about the “Induction of resistance of pathogens” value (all classes of pathogens) of the same compound?
A: resistance of pathogens is not induced

Q: What about the “Effect on proinflammatory cytokines” value [9] of the same compound?
A: down-regulate proinflammatory cytokines

Q: And the “Pulmonary artery pressure compared to saline group” value ([10]; 1% NCT)?
A: tended to result in even better values

Q: And the “Alveolo-arterial difference of oxygen partial pressure (AaDO2)” value ([10]; 1% NCT, 4-hour measurement, controls 33.7±9.03, p=0.016)?
A: 21.0±13.09

Q: What about the “Arterial partial pressure of oxygen (PaO2) compared to controls” value ([10]; 1% NCT) of the same compound?
A: No difference in PaO2 to controls

Q: And the “Heart rate compared to controls” value ([10]; 1% NCT)?
A: not significantly different from controls

Q: What about the “Tolerability in the bronchopulmonary system upon inhalation” value ([10]; 1% NCT, conclusion from pig and volunteer results) of the same compound?
A: very well tolerated

Q: And the “Pulmonary artery pressure compared to controls” value ([10]; 5% NCT)?
A: became higher than in the control group; also recorded: significantly higher values

Q: And the Tolerability upon inhalation ([10]; 5% NCT)?
A: very well tolerated

Q: What about the “Alveolo-arterial difference of oxygen partial pressure (AaDO2) compared to the controls” value ([10]; 5% NCT (p=0.99)) of the same compound?
A: not different

Q: And the “Arterial partial pressure of oxygen (PaO2) compared to controls” value ([10]; 5% NCT)?
A: No difference in PaO2 to controls

Q: And the “Heart rate compared to controls” value ([10]; 5% NCT)?
A: not significantly different from controls
